Source: patent US20110172296A1, “MODULATION OF TRANSFORMING GROWTH FACTOR-BETA 1 EXPRESSION” (priority 2010, published 2011)
Where “and” joins values, the source holds several entries; their conditions need not be identical. Equal entries are not always repeated. In the oligonucleotide strings, read from the 5' end, every base follows the letter of its sugar. An asterisk marks phosphorothioate; unmarked linkages are phosphodiester. Other units and linkages are bracketed, terminal groups are in braces. A string of capitals states the bases alone. e = 2'-O-(2-methoxyethyl) (MOE); [5mC] = 5-methylcytosine; d = 2'-deoxy (DNA)

System: human TGF-beta1 mRNA
Test: Antisense inhibition of human TGF-beta1 mRNA in HuVEC cells, single 10 nM dose, Lipofectamine 2000 (Example 2)
Format: cell-based
Conditions: for % inhibition: 10 nM oligonucleotide, HuVEC, relative to untreated control cells, gapmers targeted to SEQ ID NO: 2; for inhibition of a TGF-beta1 mRNA: threshold lists of Oligo IDs, 10 nM
Summary of the method: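 HuVEC cells (5,000/well) transfected with 10 nM 2-13-5 MOE gapmer (phosphorothioate, 5-methylcytosine) via Lipofectamine 2000 for 4 h, then recovered ~24 h. mRNA measured by qRT-PCR, normalized to RIBOGREEN total RNA; percent inhibition versus untreated cells.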

Substance | % inhibition [%] | inhibition of a TGF-beta1 mRNA
414085 (antisense e[5mC]*eT*dA*dA*dA*dG*dG*dA*dG*dA*d[5mC]*dA*dG*dA*dT*eG*e[5mC]*eT*e[5mC]*eA) [compound 414085] | 66 | 60% and 65%
414086 (antisense eT*eT*dG*dA*dA*dT*dT*d[5mC]*d[5mC]*dA*dA*d[5mC]*dA*dA*dT*e[5mC]*eA*e[5mC]*eA*eG) [compound 414086] | 54 | –
414087 (antisense eG*eT*dG*dA*d[5mC]*d[5mC]*dT*dT*d[5mC]*d[5mC]*dA*dA*d[5mC]*dT*dT*eT*eG*eA*eA*eT) [compound 414087] | 77 | 60% and 65% and 70% and 75%
414088 (antisense eT*eT*d[5mC]*dT*dA*dG*d[5mC]*dA*dT*dT*d[5mC]*dT*dA*dG*dA*eA*eT*e[5mC]*e[5mC]*e[5mC]) [compound 414088] | 66 | 60% and 65%
414089 (antisense eA*eA*dT*dT*d[5mC]*dT*dA*dG*d[5mC]*dA*dT*dT*d[5mC]*dT*dA*eG*eA*eA*eT*e[5mC]) [compound 414089] | 18 | –
414090 (antisense eG*eA*dT*dT*d[5mC]*d[5mC]*dA*dA*dT*dG*dT*dT*dT*d[5mC]*dA*eG*e[5mC]*eT*eT*eT) [compound 414090] | 80 | 60% and 65% and 70% and 75% and 80%
414091 (antisense eG*eG*dT*dA*dT*d[5mC]*d[5mC]*dA*d[5mC]*dA*dA*dT*dT*dG*dG*e[5mC]*e[5mC]*eA*eG*eT) [compound 414091] | 64 | 60%
414092 (antisense eG*eA*dG*dA*dT*dA*d[5mC]*d[5mC]*dA*dA*dT*dA*dT*dT*d[5mC]*eT*eG*e[5mC]*eT*eT) [compound 414092] | 86 | 60% and 65% and 70% and 75% and 80% and 85%
414093 (antisense eA*eA*d[5mC]*dA*dT*dT*d[5mC]*d[5mC]*dA*dA*d[5mC]*dA*d[5mC]*dT*dG*eA*eG*eT*eT*e[5mC]) [compound 414093] | 68 | 60% and 65%
414094 (antisense eT*e[5mC]*dA*dA*dG*dA*dG*dG*dT*dT*d[5mC]*dA*dA*dA*d[5mC]*eT*eG*eA*e[5mC]*eA) [compound 414094] | 67 | 60% and 65%
414095 (antisense eA*eA*dT*dT*d[5mC]*d[5mC]*dA*dG*dT*dA*dT*dG*d[5mC]*d[5mC]*dA*eG*eT*eA*eT*eT) [compound 414095] | 46 | –
414096 (antisense e[5mC]*e[5mC]*dA*dA*d[5mC]*d[5mC]*dT*dT*dT*dG*dA*dG*dG*dA*dT*e[5mC]*eT*eT*eG*eG) [compound 414096] | 74 | 60% and 65% and 70%
414097 (antisense eG*eA*dA*dT*d[5mC]*d[5mC]*dA*dA*d[5mC]*dA*dT*dT*dT*d[5mC]*dA*eG*e[5mC]*eT*eT*eT) [compound 414097] | 74 | 60% and 65% and 70%
414098 (antisense eA*eA*dG*dG*dG*dA*dG*dG*dA*dA*dT*dA*dA*dG*dG*eT*e[5mC]*eA*eG*eA) [compound 414098] | 70 | 60% and 65% and 70%
414099 (antisense eG*eT*dA*dG*dG*d[5mC]*dT*dA*dT*dT*dA*dA*dT*dA*dG*eT*eT*eA*eA*eG) [compound 414099] | 37 | –
414100 (antisense eT*eT*d[5mC]*d[5mC]*dA*d[5mC]*dT*d[5mC]*dA*dA*dT*dG*dA*dA*dT*eG*eG*eA*eA*eA) [compound 414100] | 48 | –
414101 (antisense eG*eA*d[5mC]*dA*dG*d[5mC]*dA*dA*dG*dA*d[5mC]*d[5mC]*dA*dA*d[5mC]*eA*e[5mC]*e[5mC]*eT*eT) [compound 414101] | 70 | 60% and 65% and 70%
414103 (antisense eA*eT*dT*d[5mC]*dA*dA*dG*dT*dA*dA*dG*dG*dT*d[5mC]*dT*eA*e[5mC]*eA*e[5mC]*eA) [compound 414103] | 58 | –
414104 (antisense eA*eG*dG*dA*dT*dT*d[5mC]*dA*dA*dG*dT*dA*dA*dG*dG*eT*e[5mC]*eT*eA*e[5mC]) [compound 414104] | 61 | 60%

Substance | % inhibition [%] | inhibition of a TGF-beta1 mRNA
414105 (antisense eG*eA*dT*dA*dT*d[5mC]*dT*dA*dG*dA*dG*dG*dA*dA*dT*eA*eT*e[5mC]*eT*eA) [compound 414105] | 27 | –
414106 (antisense eA*eT*dT*d[5mC]*d[5mC]*dT*dT*dG*dA*dT*dA*dT*d[5mC]*dT*dA*eG*eA*eG*eG*eA) [compound 414106] | 74 | 60% and 65% and 70%
414107 (antisense eT*eT*d[5mC]*dA*dA*dA*dT*dG*dT*dA*dT*d[5mC]*dT*d[5mC]*dT*eA*eA*eT*eT*eA) [compound 414107] | 7 | –
414108 (antisense e[5mC]*eA*d[5mC]*dA*dT*dG*d[5mC]*dA*dA*dT*d[5mC]*d[5mC]*dA*d[5mC]*d[5mC]*eG*eT*eG*eT*eT) [compound 414108] | 61 | 60%
414109 (antisense eG*eG*d[5mC]*d[5mC]*dA*dA*dT*dT*dT*d[5mC]*d[5mC]*dA*dT*dT*dG*e[5mC]*eA*eT*e[5mC]*eT) [compound 414109] | 80 | 60% and 65% and 70% and 75% and 80%
414110 (antisense eG*eA*dA*d[5mC]*dA*dA*dA*dT*dT*dT*dT*d[5mC]*d[5mC]*dT*dA*eT*eG*eA*eA*eA) [compound 414110] | 14 | –
414111 (antisense eT*eT*dG*dA*dA*d[5mC]*dA*dA*dG*d[5mC]*d[5mC]*dG*dT*d[5mC]*dT*eA*eG*eG*eT*eG) [compound 414111] | 81 | 60% and 65% and 70% and 75% and 80%
414112 (antisense eG*eG*d[5mC]*dA*dG*d[5mC]*dA*dT*d[5mC]*dA*d[5mC]*d[5mC]*dT*dG*dG*eG*eA*eA*e[5mC]*eT) [compound 414112] | 57 | –
414113 (antisense eT*e[5mC]*dT*dG*dG*dG*dA*dA*dA*dA*dA*dG*dA*dG*dT*e[5mC]*e[5mC]*eT*eG*eG) [compound 414113] | 79 | 60% and 65% and 70% and 75%
414114 (antisense eT*eT*dT*d[5mC]*d[5mC]*dA*dA*dG*dA*dG*d[5mC]*d[5mC]*dA*d[5mC]*dA*eG*eA*eA*eG*e[5mC]) [compound 414114] | 46 | –
414115 (antisense eT*eT*dT*dT*d[5mC]*d[5mC]*dA*dT*dA*dA*dT*dA*dA*dA*dG*eG*eA*eA*eT*eT) [compound 414115] | 18 | –
414116 (antisense e[5mC]*eT*dG*dG*dA*dT*dG*dA*dG*dA*dG*dT*dT*dT*dA*e[5mC]*eG*eG*eG*e[5mC]) [compound 414116] | 83 | 60% and 65% and 70% and 75% and 80%
414117 (antisense eA*eG*dT*dG*d[5mC]*dA*dA*dT*dA*d[5mC]*dG*dG*dT*dA*dT*eT*eG*e[5mC]*eA*eG) [compound 414117] | 81 | 60% and 65% and 70% and 75% and 80%
414118 (antisense eA*eA*dT*dG*d[5mC]*d[5mC]*d[5mC]*dA*dA*dG*dT*d[5mC]*d[5mC]*dT*d[5mC]*eA*e[5mC]*e[5mC]*eG*eT) [compound 414118] | 73 | 60% and 65% and 70%
414119 (antisense eT*eG*dT*dG*d[5mC]*dA*dA*d[5mC]*dA*dA*dA*dT*dG*dT*dT*eT*eA*eT*eT*eG) [compound 414119] | 43 | –
414120 (antisense e[5mC]*eA*d[5mC]*dA*d[5mC]*d[5mC]*d[5mC]*dT*dG*dG*dA*dA*d[5mC]*dA*dT*eA*e[5mC]*eA*eA*eA) [compound 414120] | 40 | –
414121 (antisense eG*e[5mC]*dA*dA*dT*dG*d[5mC]*dT*dT*dA*dA*dG*dA*d[5mC]*dA*eA*eG*e[5mC]*e[5mC]*eT) [compound 414121] | 62 | 60%
414122 (antisense eT*e[5mC]*dA*d[5mC]*dT*dA*dA*d[5mC]*dA*d[5mC]*dA*dG*dA*dT*dT*eA*eA*eG*e[5mC]*eA) [compound 414122] | 34 | –
